Consider 6 molecules from patent publication US20220273823A1, “THERANOSTIC CONJUGATES” (Ariel Scientific Innovations Ltd., priority 2019, published 2022).

One data set deals with CHO. The data set can be described thus: XTT cell survival assay (growth inhibition), CHO. The settings on record: up to 25 μM. The class given is cell-based, Chinese hamster. The procedure:
(§1) The cytotoxicity of the peptide-drug conjugates was determined by measuring the mitochondrial enzyme activity, using a commercial XTT assay kit. All samples were prepared in PBS pH 7.4 contained 3% DMSO. The Cells were cultured in micro wells at a concentration 5-10×10^4 cells/well. The cells were washed and fresh cell medium containing different concentrations (up to 25 μM) of the conjugates were added and the cells were incubated for 10 minutes. The cultures were washed and then given a fresh medium and cultured for 48 hours and 72 hours. At the end of the second incubation, XTT reagent was added and the cells were re-incubated for additional 2-4 hours. During that time the absorbencies in the wells were measured with a TECAN Infinite M200 ELISA reader at 480 nm and 680 nm. The difference in the absorbencies measurements at these two wavelengths was used for calculating the percentage Growth Inhibition (GI) in test wells compared to two controls: cells that were exposed to the medium and solvent, and those which were exposed to a solvent-free medium. All the tests were done in triplicate.
(In general: Tetrazolium assays rely on reduction of a dye to a coloured formazan, in cell work by metabolically active cells.)

The subject of the next data set is Panc-1. The experiment in a line: XTT cell survival assay (growth inhibition), Panc-1. The class given is cell-based, human. The note with it: Panc-1, XTT, up to 25 μM. On the procedure:
as §1

A short description of data set [1]: Spectral properties of RD, IRD-CLB and 5-CLB in PB and CM. The class given is physicochemical. On the procedure:
The spectral properties of the dye RD and its conjugates IRD-CLB and 5-CLB were measured at the concentrations (c) of 0.6 μM in 10 mM phosphate buffer pH 7.5 (PB) and cell medium pH 7.5 (CM), both containing 20% of acetonitrile (ACN) to improve solubility of the compounds.
Table 2 presents the absorption (λmaxAb) and emission (λmaxFl) maxima, extinction coefficients (ε) and fluorescence quantum yields (ΦF) of the RD dye and IRD-CLB and 5-CLB conjugates measured at 25° C. in 10 mM phosphate buffer pH 7.5 (PB) and cell medium pH 7.5 (CM).
The biodegradable ester linker (BL) in IRD-CLB and 5-CLB can be hydrolyzed to release free CLB and, accordingly, IRD turns into RD, which is accompanied by a noticeable change in the spectral properties. The time-dependent emission spectra were recorded in PB and CM (see, FIGS. 9A-D) using the excitation wavelengths 720 nm and 532 nm. The first one enabled monitoring of the decrease in the concentration of IRD-CLB and 5-CLB, while the second one—the increase in the concentration of RD and OctA-RD. Only the NIR fluorescence of IRD-CLB and 5-CLB was detected, when excited at 720 nm; and only the red fluorescence of RD and OctA-RD was detected, when excited at 532 nm.
Absorption spectra were recorded on a Jasco V-730 UV-Vis spectrophotometer and the fluorescence spectra were measured on Edinburgh FS5 spectrofluorometer. The absorption and fluorescence spectra and the quantum yields (ΦF) were measured in a 1-cm quartz cell at ˜0.5 μM dye concentrations in PB 10 mmol buffer pH 7.4 at 25° C. and cell medium pH 7.4. Excitation wavelength was 720 nm and 532 nm. The recorded fluorescence spectra were corrected using the wavelength-dependent instrument sensitivity coefficients. Absorption and emission maxima were measured with accuracy of ±0.3 nm and ±0.5 nm, respectively, and rounded. For the determination of the quantum yields, the integrated relative intensities were measured versus ICG™ in methanol as the reference (ΦF=0.043) and Cy3™ in PBS (ΦF=0.043). The absorbance values measured for the samples and the reference at the excitation wavelength were 0.04-0.06 measured in a 1-cm cell. The absolute quantum yields were calculated according to Equation 1.

Data set [2] in a line: Absorption and emission spectra of XCy, XCy-CLB and OCTA-G-XCy-CLB in PB and CM. It counts as physicochemical. The settings on record: for λmaxFl: λex 650 nm; for absorption maximum / fluorescence: in PB and CM. On the procedure: The absorption and emission spectra of XCy, XCy-CLB and OCTA-G-XCy-CLB were investigated in two different conditions, 10 mM phosphate buffer pH 7.4 containing 10% methanol (PB) and cell medium pH 7.4 containing 10% methanol (CM) (see, Table 1 below). CM was taken as a model of normal physiological conditions during drug delivery in the experiments with cells. A RPMI-1640 standard cell medium that contains 50 mL fetal bovine serum (FBS), 5 mL penicillin (10,000 U/mL), 5 mL streptomycin (10 mg/mL), 5 mL of 200 mM glutamine, and 5.3 mg/L phenol red indicator was utilized. FBS contains enzyme aspartate-aminotransferase that facilitates the ester bond cleavage.
(§2) Absorption spectra were recorded on a Jasco V-730 UV-Vis spectrophotometer and the fluorescence spectra were measured on Edinburgh FS5 spectrofluorometer. The absorption and fluorescence spectra were measured in 1-cm quartz cells at about 0.5 μM dye concentrations in PB 10 mmol buffer pH 7.4 at 25° C. and cell medium pH 7.4. Excitation wavelength was 650 nm. All the solutions were filtered in PVDF 0.45 μm filter before taking spectrum.

Data set [3] is described as follows: Time-dependent absorption/fluorescence CLB cleavage profiles of XCy-CLB and OCTA-G-XCy-CLB in PB and cell medium. The class given is in vitro ADME. The settings on record: read-out: CLB release half-life τ1/2 (converted). The procedure: To estimate the rate of the CLB release, the time-dependent absorption and fluorescence spectra of XCy-CLB and OCTA-G-XCy-CLB were measured in PB and CM (see, FIGS. 5A-H). With respect to time, the absorption band at about 600 nm decreases, a new band at about 680 nm increases and a fluorescence band subsequently appears at ˜708 nm (λex=650 nm).
Based of the time-dependent absorption and emission spectra, corresponding drug cleavage profiles were obtained (see, FIGS. 6A-B) and the drug release rates were quantified by half-lives (τ1/2). The cleavage profiles and half-lives obtained spectrophotometrically and spectrofluorometrically almost coincide. […] The release of CLB from OCTA-G-XCy-CLB in CM (τ1/2˜25 min) is […] faster than that in PB τ1/2 ˜2.5 h. Thus, the drug release for both XCy-CLB and OCTA-G-XCy-CLB in CM is much faster compared to PB. The obtained half-lives of the ester bond cleavage in these media were found in good agreement with some reported data. Linkage of OCTA to the conjugate accelerates the drug release by factor of 6 in PB and 1.3 in CM.
as §2

Setting [4] is: PB:ACN (4:1, v/v), 25° C., c=0.6 μM.
Setting [5] is: CM: cell medium pH 7.4 containing 10% methanol.
Setting [6] is: PB: 10 mM phosphate buffer pH 7.4 containing 10% methanol.

Like-named read-outs stand apart in the source and are kept apart here.

As for `O=C(O)CCCc1ccc(N(CCCl)CCCl)cc1` [CLB, chlorambucil], the “Growth Inhibition (GI) / toxicity” value in the data set on CHO is recorded as “neither free OCT, nor free CLB exhibited detectible toxicity”; in the data set with Panc-1 it was “neither free OCT, nor free CLB exhibited detectible toxicity”.
As for `C[N+]1=C(C=CC2=C(OC(=O)CCCc3ccc(N(CCCl)CCCl)cc3)C(=CC=C3N(CCCCCC(=O)O)c4ccccc4C3(C)C)CCC2)C(C)(C)c2ccccc21` [IRD-CLB, 2-(−2-(−2-((4-(4-(bis(2-chloroethyl)amino)phenyl)butanoyl)oxy)-3-(2-(−1-(5-carboxypentyl)-3,3-dimethylindolin-2-ylidene)ethylidene)cyclohex-1-en-1-yl)vinyl)-1,3,3-trimethyl-3H-indol-1-ium], in data set [1] (CM:ACN (4:1, v/v), 25° C.), the ΦF was 6.3%, the λmaxAb was 785 nm and the λmaxFl is given as 805 nm. Further, in data set [1] (PB and CM), the “emission when excited at 532 nm” value was “no detectable emission”. In data set [1] (PB:ACN (4:1, v/v), 25° C.), the ΦF was 2.9%, the ε is recorded as 160,000 M^−1cm^−1 and the λmaxFl is 795 nm. Moreover, in data set [1] (setting [4]), the λmaxAb was determined as 775 nm.
In data set [1] (CM:ACN (4:1, v/v), 25° C.), `CN1C(=CC=C2CCCC(=CC=C3N(CCCCCC(=O)O)c4ccccc4C3(C)C)C2=O)C(C)(C)c2ccccc21` [RD, 6-(−3,3-dimethyl-2-(−2-(−2-oxo-3-(2-(−1,3,3-trimethylindolin-2-ylidene)ethylidene)cyclohexylidene)ethylidene)indolin-1-yl)hexanoic acid] had a ΦF of 2.6%, a λmaxAb of 526 nm and a λmaxFl of 626 nm. In data set [1] (PB:ACN (4:1, v/v), 25° C.), this molecule gave a ΦF of 9.9% and a λmaxFl of 643 nm. The λmaxAb in data set [1] (setting [4]) is on record as 555 nm.
As to `CC1(C)C(/C=C/C2=C3Oc4cc(O)ccc4C=C3CCC2)=[N+](CCCCCC(=O)O)c2ccccc21` [XCy, (E)-1-(5-carboxypentyl)-2-(2-(6-hydroxy-2,3-dihydro-1H-xanthen-4-yl)vinyl)-3,3-dimethyl-3H-indol-1-ium], in data set [2] (setting [5]), the λmaxAbs came to 679 nm and the λmaxFl stood at 713 nm. In data set [2] (setting [6]), the λmaxAbs amounted to 681 nm and the λmaxFl was 708 nm. In data set [2], the absorption maximum result is reported as “about 680 nm” and the fluorescence result is “around 710 nm”.
As to `CC1(C)C(/C=C/C2=C3Oc4cc(OC(=O)CCCc5ccc(N(CCCl)CCCl)cc5)ccc4C=C3CCC2)=[N+](CCCCCC(=O)O)c2ccccc21` [XCy-CLB, (E)-2-(2-(6-((4-(4-(bis(2-chloroethyl)amino)phenyl)butanoyl)oxy)-2,3-dihydro-1H-xanthen-4-yl)vinyl)-1-(5-carboxypentyl)-3,3-dimethyl-3H-indol-1-ium], the half-life in data set [3] (bovine, in CM (cell medium pH 7.4, esterase present)) is around 0.667 h. Further, the half-life in data set [3] (phosphate buffer, in PB pH 7.4) was around 8 h. For the same molecule, in data set [2] (setting [5]), the λmaxAbs is given as 602 nm and the λmaxFl result is “No fl”. Moreover, in data set [2] (setting [6]), the λmaxAbs came out at 598 nm and the λmaxFl result is reported as “No fl”. Besides, in data set [2], the absorption maximum was around 600 nm and the fluorescence result was “not detectable”.
Regarding octreotide amide, the “Growth Inhibition (GI) / toxicity” value in the data set with CHO is given as “neither free OCT, nor free CLB exhibited detectible toxicity”; in the data set on Panc-1 it was “neither free OCT, nor free CLB exhibited detectible toxicity”.
